Assay results from ChEMBL document CHEMBL5154816, “Structure-Based Discovery and Optimization of Furo[3,2-c]pyridin-4(5H)-one Derivatives as Potent and Second Bromodomain (BD2)-Selective Bromo and Extra Terminal Domain (BET) Inhibitors” (J Med Chem, 2022).

Tests used:
[1] = target: T1, Bromodomain-containing protein 4 (Homo sapiens, UniProt O60885); assay: Inhibition of C-terminal His6-tagged BRD4 BD1 (unknown origin) using H-YSGRGK(Ac)GGK(Ac)GLGK(Ac)-GGAK(Ac)RHRK-Biotin-OH as substrate incubated for 1 hrs by HTRF assay
[2] = species on record: Homo sapiens; assay: Selectivity index, ratio of IC50 for BRD4 BD1 (unknown origin) to IC50 of BRD4 BD2 (unknown origin)
[3] = target: T1, Bromodomain-containing protein 4; assay: Inhibition of C-terminal His6-tagged BRD4 BD2 (unknown origin) using H-YSGRGK(Ac)GGK(Ac)GLGK(Ac)-GGAK(Ac)RHRK-Biotin-OH as substrate incubated for 1 hrs by HTRF assay
[4] = Cytotoxicity against human HFL1 cells assessed as cell growth inhibition incubated for 72 hrs by Cell titre Glo-luminiscence cell viability assay; assay type: toxicity, cell-based
[5] = target: SWI/SNF-related matrix-associated actin-dependent regulator of chromatin subfamily A member 2 (Homo sapiens) (UniProt P51531); assay: Binding affinity to SMARCA2A (unknown origin) assessed as change in melting temperature at 100 uM incubated for 30 mins by thermal shift assay
Chain of SWI/SNF-related matrix-associated actin-dependent regulator of chromatin subfamily A member 2 (Homo sapiens) (P51531 whole entry): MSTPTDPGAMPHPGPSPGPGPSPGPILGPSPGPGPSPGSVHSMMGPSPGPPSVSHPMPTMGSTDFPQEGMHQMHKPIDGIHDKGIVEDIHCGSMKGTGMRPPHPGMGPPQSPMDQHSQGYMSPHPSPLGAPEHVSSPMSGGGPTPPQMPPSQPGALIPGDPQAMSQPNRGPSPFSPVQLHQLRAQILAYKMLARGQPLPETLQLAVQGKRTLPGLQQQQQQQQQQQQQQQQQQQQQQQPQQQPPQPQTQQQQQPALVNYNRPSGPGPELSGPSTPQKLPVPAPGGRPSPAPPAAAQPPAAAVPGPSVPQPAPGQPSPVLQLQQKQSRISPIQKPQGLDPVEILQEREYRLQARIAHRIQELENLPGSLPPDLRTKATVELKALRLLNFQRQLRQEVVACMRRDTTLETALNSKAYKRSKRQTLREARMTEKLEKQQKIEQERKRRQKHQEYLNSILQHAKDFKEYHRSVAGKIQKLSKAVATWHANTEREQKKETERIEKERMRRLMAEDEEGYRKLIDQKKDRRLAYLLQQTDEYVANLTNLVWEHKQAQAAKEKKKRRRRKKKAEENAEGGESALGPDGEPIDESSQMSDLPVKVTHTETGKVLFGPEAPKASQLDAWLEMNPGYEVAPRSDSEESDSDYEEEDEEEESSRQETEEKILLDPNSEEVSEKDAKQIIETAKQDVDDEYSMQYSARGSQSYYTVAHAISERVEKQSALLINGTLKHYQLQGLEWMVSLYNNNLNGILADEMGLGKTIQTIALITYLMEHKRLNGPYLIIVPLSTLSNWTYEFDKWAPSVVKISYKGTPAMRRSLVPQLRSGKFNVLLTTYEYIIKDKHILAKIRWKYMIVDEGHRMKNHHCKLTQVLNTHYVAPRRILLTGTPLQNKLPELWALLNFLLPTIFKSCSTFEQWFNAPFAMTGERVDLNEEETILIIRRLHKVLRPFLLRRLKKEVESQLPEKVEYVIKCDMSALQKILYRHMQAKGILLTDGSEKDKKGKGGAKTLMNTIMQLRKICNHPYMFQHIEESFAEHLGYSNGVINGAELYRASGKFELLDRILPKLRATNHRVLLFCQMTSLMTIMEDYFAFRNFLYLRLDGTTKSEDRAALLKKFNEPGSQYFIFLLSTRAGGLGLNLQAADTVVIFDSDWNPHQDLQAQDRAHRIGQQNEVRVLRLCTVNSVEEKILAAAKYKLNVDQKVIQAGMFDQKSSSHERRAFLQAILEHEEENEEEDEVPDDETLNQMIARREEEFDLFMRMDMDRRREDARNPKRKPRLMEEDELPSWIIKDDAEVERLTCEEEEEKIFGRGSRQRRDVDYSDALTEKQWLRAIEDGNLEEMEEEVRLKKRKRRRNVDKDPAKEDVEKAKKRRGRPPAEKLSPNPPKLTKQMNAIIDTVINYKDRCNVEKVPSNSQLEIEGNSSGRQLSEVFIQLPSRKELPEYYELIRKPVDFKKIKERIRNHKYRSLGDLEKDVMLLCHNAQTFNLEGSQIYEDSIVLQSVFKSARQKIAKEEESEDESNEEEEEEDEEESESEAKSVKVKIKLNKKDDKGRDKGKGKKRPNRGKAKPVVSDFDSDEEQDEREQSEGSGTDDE

[6] = target: SWI/SNF-related matrix-associated actin-dependent regulator of chromatin subfamily A member 2 (Homo sapiens) (UniProt P51531); assay: Binding affinity to SMARCA2B (unknown origin) assessed as change in melting temperature at 100 uM incubated for 30 mins by thermal shift assay
[7] = target: PH-interacting protein (Homo sapiens) (UniProt Q8WWQ0); assay: Binding affinity to PHIP-2 (unknown origin) assessed as change in melting temperature at 100 uM incubated for 30 mins by thermal shift assay
[8] = Metabolic stability in rat liver microsomes assessed as half life at 1 uM measured up to 60 mins in presence of NADPH by HPLC-MS/MS analysis; assay type: ADME, Microsome
[9] = Metabolic stability in human liver microsomes assessed as half life at 1 uM measured up to 60 mins in presence of NADPH by HPLC-MS/MS analysis; assay type: ADME, Microsome
[10] = Metabolic stability in human liver microsomes assessed as intrinsic clearance at 1 uM measured up to 60 mins in presence of NADPH by HPLC-MS/MS analysis; assay type: ADME, Microsome; settings: 1 h
[11] = Metabolic stability in rat liver microsomes assessed as intrinsic clearance at 1 uM measured up to 60 mins in presence of NADPH by HPLC-MS/MS analysis; assay type: ADME, Microsome; settings: 1 h
[12] = Metabolic stability in rat hepatocytes assessed as hepatic clearance at 1 uM measured up to 60 mins in presence of NADPH by HPLC-MS/MS analysis; assay type: ADME, cell-based, Hepatocyte
[13] = Metabolic stability in human hepatocytes assessed as hepatic clearance at 1 uM measured up to 60 mins in presence of NADPH by HPLC-MS/MS analysis; assay type: ADME, cell-based, Hepatocyte
[14] = Metabolic stability in human hepatocytes assessed as hepatic extraction ratio at 1 uM measured up to 60 mins in presence of NADPH by HPLC-MS/MS analysis; assay type: ADME, cell-based, Hepatocyte; settings: read-out: ERH
[15] = Metabolic stability in rat hepatocytes assessed as hepatic extraction ratio at 1 uM measured up to 60 mins in presence of NADPH by HPLC-MS/MS analysis; assay type: ADME, cell-based, Hepatocyte; settings: read-out: ERH

Compound | IC50 [1] [nM] | Ratio IC50 [2] | IC50 [3] [nM] | other results
Cc1cc(-c2cc3c(=O)n(C)cc(-c4cc(C(C)(C)O)ccc4Oc4c(C)cc(F)cc4C)c3o2)cc(C)c1OCCCO | 63 | 45 | 1.4 | 
CCS(=O)(=O)Nc1ccc(Oc2ccc(F)cc2F)c(-c2cn(C)c(=O)c3cc(-c4cc(C)c(CCCO)c(C)c4)oc23)c1 | 0.72 | 1.47 | 0.49 | 
Cc1cc(-c2cc3c(=O)n(C)cc(-c4cc(CS(=O)(=O)C(C)C)ccc4Oc4ccc(F)cc4F)c3o2)cc(C)c1OCCO | 0.57 | 0.92 | 0.62 | 
CCc1ncc(-c2cc3c(=O)n(C)cc(-c4cc(NS(=O)(=O)CC)ccc4Oc4ccc(F)cc4F)c3o2)[nH]1 | 1.2 | 2.4 | 0.5 | 
Cc1cc(-c2cc3c(=O)n(C)cc(-c4cc(NS(=O)(=O)C5CC5)ccc4Oc4ccc(F)cc4F)c3o2)cc(C)c1OCCO | 1 | 1 | 1 | 
CCS(=O)(=O)Nc1ccc(Oc2ccc(F)cc2F)c(-c2cn(C)c(=O)c3cc(-c4cc(C)c(OCCO)c(C)c4)oc23)c1 | 0.56 | 0.93 | 0.6 | IC50 at 72 h [4]: < 10 nM
CCC(=O)Nc1ccc(Oc2ccc(F)cc2F)c(-c2cn(C)c(=O)c3cc(-c4cc(C)c(OCCO)c(C)c4)oc23)c1 | 2.3 | 3.19 | 0.72 | 
Cc1cc(F)cc(C)c1Oc1ccc(C(C)(C)O)cc1-c1cn(C)c(=O)c2cc(-c3cnc(C4CCOC4)[nH]3)oc12 (centres undefined) | 78 | 130 | 0.6 | 
CCS(=O)(=O)Nc1ccc(Oc2ccc(F)cc2F)c(-c2cn(C)c(=O)cc2OCc2ccccc2)c1 |  |  | 0.92 | 
CC(=O)Nc1ccc(Oc2ccc(F)cc2F)c(-c2cn(C)c(=O)c3cc(-c4cc(C)c(OCCO)c(C)c4)oc23)c1 | 0.52 | 0.63 | 0.83 | 
Cc1cc(-c2cc3c(=O)n(C)cc(-c4cc(NS(=O)(=O)C(C)C)ccc4Oc4ccc(F)cc4F)c3o2)cc(C)c1OCCO | 1.4 | 1.49 | 0.94 | 
Cc1cc(-c2cc3c(=O)n(C)cc(-c4cc(CS(=O)(=O)C(C)(C)C)ccc4Oc4ccc(F)cc4F)c3o2)cc(C)c1OCCO | 3.3 | 2.36 | 1.4 | 
CCS(=O)(=O)Nc1ccc(Oc2ccc(F)cc2F)c(-c2cn(C)c(=O)c3cc(-c4cnc(C5CCC5)[nH]4)oc23)c1 | 2 | 2.13 | 0.94 | 
CCc1cccc(CC)c1Oc1ccc(NS(=O)(=O)CC)cc1-c1cn(C)c(=O)c2cc(-c3cc(C)c(OCCO)c(C)c3)oc12 | 61 | 6.29 | 9.7 | 
CCc1ncc(-c2cc3c(=O)n(C)cc(-c4cc(C(C)(C)O)ccc4Oc4c(C)cc(F)cc4C)c3o2)[nH]1 | 121 | 202 | 0.6 | 
CCS(=O)(=O)Nc1ccc(Oc2ccc(F)cc2F)c(-c2cn(C)c(=O)c3cc(-c4ccccc4)oc23)c1 | 2.4 | 1.6 | 1.5 | 
Cc1cc(-c2cc3c(=O)n(C)cc(-c4cc(NC(=O)C(C)C)ccc4Oc4ccc(F)cc4F)c3o2)cc(C)c1OCCO | 7.8 | 4.11 | 1.9 | 
Cc1cc(-c2cc3c(=O)n(C)cc(-c4cc(NS(C)(=O)=O)ccc4Oc4ccc(F)cc4F)c3o2)cc(C)c1OCCO | 0.39 | 0.51 | 0.76 | 
CCS(=O)(=O)Nc1ccc(Oc2ccc(F)cc2F)c(-c2cn(C)c(=O)c3cc(-c4cnc(C5CCCC5)[nH]4)oc23)c1 | 4.1 | 4.52 | 0.91 | 
CCS(=O)(=O)Nc1ccc(Oc2ccc(F)cc2F)c(-c2cn(C)c(=O)c3cc(-c4cc(C)cc(C)c4)oc23)c1 | 6.1 | 1.65 | 3.7 | 

Compound | IC50 [1] [nM] | Ratio IC50 [2] | IC50 [3] [nM] | other results
CCS(=O)(=O)Nc1ccc(Oc2ccc(F)cc2F)c(-c2cn(C)c(=O)c3cc(-c4ccc(CCCO)cc4)oc23)c1 | 0.75 | 1.83 | 0.41 | 
CCS(=O)(=O)Cc1ccc(Oc2ccc(F)cc2F)c(-c2cn(C)c(=O)c3cc(-c4cc(C)c(OCCO)c(C)c4)oc23)c1 | 0.33 | 0.6 | 0.55 | 
CCS(=O)(=O)Nc1ccc(Oc2ccc(F)cc2F)c(-c2cn(C)c(=O)c3cc(-c4cnc(C(C)C)[nH]4)oc23)c1 | 0.95 | 1.76 | 0.54 | 
Cc1cc(F)cc(C)c1Oc1ccc(C(C)(C)O)cc1-c1cn(C)c(=O)c2cc(-c3cnc(C(C)C)[nH]3)oc12 | 192 | 282 | 0.68 | 
CCCS(=O)(=O)Nc1ccc(Oc2ccc(F)cc2F)c(-c2cn(C)c(=O)c3cc(-c4cc(C)c(OCCO)c(C)c4)oc23)c1 | 0.94 | 1.54 | 0.65 | 
Cc1cc(-c2cc3c(=O)n(C)cc(-c4cc(C(C)(C)O)ccc4Oc4ccc(F)cc4F)c3o2)cc(C)c1OCCO | 1.57 | 3.5 | 0.45 | 
CCc1cccc(C)c1Oc1ccc(NS(=O)(=O)CC)cc1-c1cn(C)c(=O)c2cc(-c3cc(C)c(OCCO)c(C)c3)oc12 | 10 | 7.14 | 1.4 | 
CCS(=O)(=O)Nc1ccc(Oc2ccc(F)cc2F)c(-c2cn(C)c(=O)c3cc(-c4cnc(C)[nH]4)oc23)c1 | 0.53 | 0.7 | 0.76 | 
CCS(=O)(=O)Nc1ccc(Oc2c(OC)cccc2OC)c(-c2cn(C)c(=O)c3cc(-c4cc(C)c(OCCO)c(C)c4)oc23)c1 | 9.8 | 4.9 | 2 | 
Cc1cc(-c2cc3c(=O)n(C)cc(-c4cc(CO)ccc4Oc4ccc(F)cc4F)c3o2)cc(C)c1OCCO | 4.1 | 4.18 | 0.98 | 
Cc1cc(-c2cc3c(=O)n(C)cc(-c4cc(NC(=O)C5CC5)ccc4Oc4ccc(F)cc4F)c3o2)cc(C)c1OCCO | 6.8 | 2.12 | 3.2 | 
Cc1cc(F)cc(C)c1Oc1ccc(C(C)(C)O)cc1-c1cn(C)c(=O)c2cc(-c3cnc(C4CCOCC4)[nH]3)oc12 | 60 | 130 | 0.46 | 
CCS(=O)(=O)Nc1ccc(Oc2ccc(F)cc2F)c(-c2cn(C)c(=O)c3cc(-c4ccc(OCCO)cc4)oc23)c1 | 0.56 | 0.9 | 0.62 | 
CCS(=O)(=O)Nc1ccc(Oc2c(F)cc(F)cc2F)c(-c2cn(C)c(=O)c3cc(-c4cc(C)c(OCCO)c(C)c4)oc23)c1 | 0.43 | 0.88 | 0.49 | 
Cc1sc2c(c1C)C(c1ccc(Cl)cc1)=N[C@@H](CC(=O)OC(C)(C)C)c1nnc(C)n1-2 |  |  |  | ΔTm [5]: -0.25 °C; ΔTm [6]: 0.25 °C; ΔTm [7]: -1 °C
CCS(=O)(=O)Nc1ccc(Oc2c(C)cccc2C)c(-c2cn(C)c(=O)c3cc(-c4cc(C)c(OCCO)c(C)c4)oc23)c1 | 6 | 4.62 | 1.3 | 
CCS(=O)(=O)Nc1ccc(Oc2ccc(F)cc2F)c(-c2cn(C)c(=O)c3cc(-c4cnc[nH]4)oc23)c1 | 1.2 | 2.35 | 0.51 | 
O=C(c1ccc(F)cc1)C1CCN(CCn2c(=O)[nH]c3ccccc3c2=O)CC1 [KETANSERIN] |  |  |  | half-life at 1 µM [8]: 18.9 min; half-life at 1 µM [9]: 34 min; CLH [10]: 0.051 mL/min/g; CLH [11]: 0.131 mL/min/g; CLhep predicted at 1 µM [12]: 25 mL/min/kg; CLhep predicted at 1 µM [13]: 14.7 mL/min/kg; hepatic extraction ratio at 1 h, 1 µM [14]: 0.712; hepatic extraction ratio at 1 h, 1 µM [15]: 0.81
CCS(=O)(=O)Nc1ccc(Oc2ccc(F)cc2F)c(-c2cn(C)c(=O)c3cc(-c4cnc(C5CC5)[nH]4)oc23)c1 | 0.7 | 2.06 | 0.34 | 
CCS(=O)(=O)Nc1ccc(Oc2c(C)cc(F)cc2C)c(-c2cn(C)c(=O)c3cc(-c4cc(C)c(OCCO)c(C)c4)oc23)c1 | 6.5 | 8.12 | 0.8 | 
